# Key:
# [1] = tested on: insulin promoter (CAT reporter) in HeLa cells; experiment: Insulin promoter CAT reporter activity in HeLa cells transformed with PDX-1; type: cell-based; conditions: HeLa cells transformed with PDX-1 and insulin promoter-CAT plasmid (FIG. 2)
# Method: FIG. 2 is a bar graph illustrating expression of an insulin promoter in HeLa cells transformed with PDX-1. The graph illustrates differences in expression from the insulin promoter in the presence or absence of the histone deacetylase inhibitor TSA. Insulin promoter activity was determined based on expression of chloramphenicol acetyl transferase (CAT) reporter activity.
# In addition, expression of an insulin promoter in HeLa cells was tested for the effect of the histone deacetylase inhibitor TSA on insulin expression. HeLa cells were transformed with PDX-1 and a plasmid comprising a portion of the insulin promoter operably linked to the chloramphenicol acetyl transferase (CAT) reporter gene. The effect of TSA and PDX-1 on insulin expression was then tested. As FIG. 2 illustrates, cells contacted with TSA had approximately 14 times the expression of cells not contacted with TSA.
# [2] = tested on: somatostatin gene expression in TRM-6/PDX-1 cells; experiment: Somatostatin mRNA expression by RT-PCR in monolayer TRM-6/PDX-1 cells; type: cell-based, human; conditions: approximately 24 hours; for somatastatin mRNA expression (effect in words): TRM-6 cells expressing PDX-1, monolayer cultures
# Method: The cells were incubated with the inhibitor for approximately 24 hours and then expression of somatastatin expression was measured with RT-PCR. As little as 66 nM TSA lead to an increase in somatastatin induction, with a maximal induction at 6.6. μM of TSA.
# [3] = tested on: insulin gene expression in TRM-6/PDX-1/NeuroD1 cells; experiment: Insulin mRNA expression by RT-PCR in monolayer TRM-6/PDX-1/NeuroD1 cells; type: cell-based, human
# Method: FIG. 1 illustrates induction of insulin expression resulting from treatment with trichostatin A (TSA). Insulin mRNA was analyzed by RT-PCR. RT-PCR for the housekeeping gene porphobilinogen deaminase was performed to ensure that equal amounts of cDNA were used. The experiment has been repeated three times and the figure shown here is representative.
# Monolayer cultures of TRM-6/PDX-1 also expressing the transcription factor NeuroD 1 (BETA2) express low levels of insulin gene expression.
smiles,measurement,setting,value
"CC(/C=C/C(=O)NO)=C\[C@@H](C)C(=O)c1ccc(N(C)C)cc1 [TSA, trichostatin A]",insulin promoter expression relative to cells not contacted with TSA,[1],approximately 14 times
same,concentration giving maximal somatastatin induction,[2]; TRM-6/PDX-1 monolayer,6.6 µM
same,lowest TSA concentration leading to an increase in somatastatin induction,[2]; TRM-6/PDX-1 monolayer,66 nM
same,somatastatin mRNA expression (effect in words),[2],bypassed the need for cell-cell contact to achieve high levels of somatostatin gene expression
same,somatastatin mRNA expression (effect in words),[2]; listed as trichostatin A,induced somatastatin mRNA expression
same,insulin expression (effect in words),"[3]; 3.3 μM for 24 hours, TRM-6/PDX-1/NeuroD1 monolayer, RT-PCR (FIG. 1)",greatly increases insulin expression
same,insulin gene expression in TRM-6 cells (summary statement),[3]; TRM-6 cells,induced insulin gene expression
